Molecules are shown by their SMILES.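 Where inhibition never reached the appropriate level, the endpoint shown equals the highest concentration tested. Otherwise, values were interpolated linearly from a five-concentration, 48-hour dose response in 96-well plates. The concentration for full growth arrest is given as TGI.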 Where a SMILES comes first, the peptide text is derived from it. The star is where a group is joined. Boc = CC(C)(C)OC(=O)*

Among the test systems are DU-145 prostate; HCT-116 colon; KM12 colon; LOX IMVI melanoma; OVCAR-4 ovarian; SK-MEL-5 melanoma; TK-10 renal; U251 CNS; MDA-N; OVCAR-5 ovarian.
Assay in all cases: growth of human tumour cells (NCI), 48 h

As to `ON=C(CC(O)(C(F)(F)Cl)C(F)(F)Cl)CC(O)(C(F)(F)Cl)C(F)(F)Cl`, the TGI with DU-145 prostate, in the assay on HCT-116 colon, in the assay with KM12 colon, in the assay on LOX IMVI melanoma, in the assay with OVCAR-4 ovarian and with SK-MEL-5 melanoma was above 10 µM in each case. Further, the TGI in the assay on TK-10 renal and with U251 CNS was above 10 µM in each case.

On to `COC(=O)[C@H](Cc1ccc(O)cc1)NC(=O)[C@H](Cc1ccc(O)cc1)NC(=O)OC(C)(C)C` (Boc-Tyr-Tyr-OMe), for which the TGI with DU-145 prostate, in the assay on HCT-116 colon, with KM12 colon, with LOX IMVI melanoma, in the assay with MDA-N and in the assay on OVCAR-5 ovarian was above 100 µM throughout. Besides, the TGI in the assay on SK-MEL-5 melanoma and with TK-10 renal was above 100 µM throughout.

For the compound `CCOC1CC(C)N(C(=O)c2ccccc2)O1` (stereo not drawn), the TGI in the assay on DU-145 prostate, in the assay on HCT-116 colon, with KM12 colon, with MDA-N, in the assay on OVCAR-5 ovarian and in the assay on SK-MEL-5 melanoma was above 100 µM throughout. Moreover, the TGI in the assay with TK-10 renal and in the assay on U251 CNS was above 100 µM each time.

For the compound `O=C1CC(=O)NC(=NNS(=O)(=O)c2ccc(Cl)cc2)N1`, the TGI with DU-145 prostate, with HCT-116 colon, in the assay on KM12 colon, in the assay with MDA-N, with OVCAR-4 ovarian and with OVCAR-5 ovarian was above 100 µM in each case. Besides, the TGI in the assay with SK-MEL-5 melanoma, in the assay on TK-10 renal and with U251 CNS was above 100 µM in each case.

For the compound `c1ccc2c(c1)OC(N1CCCC1)c1cnc(N3CCOCC3)nc1-2` (stereo not drawn), the TGI with DU-145 prostate was above 100 µM; in the assay with HCT-116 colon, above 100 µM; in the assay with KM12 colon, above 100 µM; in the assay on LOX IMVI melanoma it was above 100 µM; in the assay on OVCAR-4 ovarian it was above 100 µM; in the assay on OVCAR-5 ovarian, 79.1 µM. Besides, the TGI with TK-10 renal and in the assay on U251 CNS was above 100 µM in each case.

With `N#Cc1c(O)c(/C=N/c2ncccn2)c(=O)n2c1[nH]c1ccccc12`, the TGI in the assay with HCT-116 colon, in the assay with KM12 colon, in the assay with LOX IMVI melanoma, with MDA-N, in the assay with OVCAR-4 ovarian and in the assay on OVCAR-5 ovarian was above 100 µM in each case. The TGI in the assay on SK-MEL-5 melanoma, with TK-10 renal and with U251 CNS was above 100 µM each time.

Consider `NC(=O)NC12CC3CC(CC(F)(C3)C1)C2`, for which the TGI in the assay with HCT-116 colon, with KM12 colon, in the assay with LOX IMVI melanoma, in the assay on OVCAR-5 ovarian, with TK-10 renal and in the assay with U251 CNS was above 100 µM in each case.

`O=C(CC(Cl)=C(Cl)Cl)c1ccccc1`: the TGI in the assay with DU-145 prostate is above 100 µM; in the assay with HCT-116 colon, 45.2 µM; in the assay on KM12 colon, above 100 µM; in the assay on LOX IMVI melanoma, 32.1 µM; with OVCAR-4 ovarian, above 100 µM; with OVCAR-5 ovarian, above 100 µM. Also, the TGI with SK-MEL-5 melanoma, in the assay on TK-10 renal and in the assay with U251 CNS was above 100 µM throughout.

`CCOC(=O)c1nc2ccc(C(F)(F)F)cc2nc1Oc1ccc(C(=O)OC)cc1`: the TGI with DU-145 prostate, in the assay with HCT-116 colon, in the assay with KM12 colon, with LOX IMVI melanoma, with OVCAR-4 ovarian and in the assay on SK-MEL-5 melanoma was above 100 µM in each case. Moreover, the TGI in the assay with TK-10 renal and with U251 CNS was above 100 µM throughout.

`CN1CC2CN(Cc3ccccc3)CCN2c2cccnc21` (stereo not drawn): the TGI in the assay on HCT-116 colon is 37.7 µM; in the assay on KM12 colon, 89.1 µM; with LOX IMVI melanoma it was 49.4 µM; in the assay on MDA-N, above 100 µM; in the assay with OVCAR-4 ovarian it was above 100 µM; with OVCAR-5 ovarian it was above 100 µM. Further, the TGI with SK-MEL-5 melanoma, with TK-10 renal and with U251 CNS was above 100 µM each time.

Consider `Cc1ccc2c(/C=C/c3ccc(N(C)C)cc3)ccc(C(C)C)cc1-2`, for which the TGI in the assay with DU-145 prostate, with HCT-116 colon, in the assay on KM12 colon, in the assay on LOX IMVI melanoma, with MDA-N and in the assay with OVCAR-5 ovarian was above 100 µM in each case. The TGI with SK-MEL-5 melanoma, with TK-10 renal and in the assay on U251 CNS was above 100 µM in each case.

On to `CCN1CN(c2ccccc2)C2(CCN(CC(CC3OCCO3)c3ccc(F)cc3)CC2)C1=O` (stereo not drawn), for which the TGI was 11 µM in the assay on HCT-116 colon; 17.5 µM in the assay on KM12 colon; 35.1 µM with LOX IMVI melanoma; above 26.3 µM with MDA-N; 36.3 µM in the assay with OVCAR-4 ovarian; 25.4 µM in the assay on OVCAR-5 ovarian. For the same compound, the results for the TGI with SK-MEL-5 melanoma, in the assay on TK-10 renal and with U251 CNS were 15.2 µM, above 46.7 µM and 38.9 µM, respectively.

For `CCOC(=O)c1cccc(NC(=O)CI)c1`, the TGI in the assay with DU-145 prostate came to 3.34 µM; in the assay with HCT-116 colon it was 0.946 µM; with KM12 colon it was 3.66 µM; with MDA-N, 0.472 µM; in the assay with OVCAR-4 ovarian, 3.02 µM; with OVCAR-5 ovarian, 3.07 µM. In addition, the TGI in the assay with SK-MEL-5 melanoma amounted to 1.22 µM; in the assay with TK-10 renal, 2.19 µM; in the assay with U251 CNS it was 1.35 µM.

As to `CCOc1ccc(N/C(=C(/C(Cl)=C(/Cl)NC(C)(C)C)[N+](=O)[O-])n2nnc3ccccc32)cc1`, the TGI was 33.7 µM with HCT-116 colon; 61.7 µM with KM12 colon; above 100 µM in the assay with OVCAR-4 ovarian; above 100 µM with OVCAR-5 ovarian; 35.1 µM in the assay with U251 CNS.

With `CC1(C)N=C(C2CCCN2C(=O)OCc2ccccc2)OC1=O` (stereo not drawn), the TGI with DU-145 prostate, in the assay with HCT-116 colon, in the assay with KM12 colon, in the assay with LOX IMVI melanoma, with MDA-N and with OVCAR-5 ovarian was above 100 µM in each case. Moreover, the TGI with SK-MEL-5 melanoma, in the assay with TK-10 renal and with U251 CNS was above 100 µM in each case.

These data come from PubChem BioAssay (NCI).
